Counter-ions that a name gives are not always drawn.
What was measured:
[1] = tested on: E. coli RNase P RNA, M1 RNA; assay: Inhibition of bacterial RNase P activity, IC50 determination (cleavage of pATSerUG by M1 RNA); format: biochemical; conditions: NI: No inhibition
[2] = tested on: Escherichia coli (ATCC25922); assay: MIC, broth microdilution (CLSI), Escherichia coli; conditions: Escherichia coli, ATCC25922, read-out: E. coli ATCC 25922 MIC, Table XIII
[3] = tested on: Staphylococcus aureus (ATCC25923); assay: MIC, broth microdilution (CLSI), Staphylococcus aureus ATCC25923; conditions: Staphylococcus aureus, ATCC25923, read-out: S. aureus ATCC 25923 MIC

With `Cc1cccc(-c2ccc3c(c2)c(C(=O)N[C@H]2CC[C@H](N)CC2)cn3CC2CCCCC2)c1.Cl` [Compound 269, N-((1r,4r)-4-aminocyclohexyl)-1-(cyclohexylmethyl)-5-(m-tolyl)-1H-indole-3-carboxamide hydrochloride salt] the IC50 [1] was 29 µM, the MIC [2] was > 512 µg/mL and the MIC [3] was 8 µg/mL.

In the case of `Cc1cccc(C(CC(=O)NC2CCC(CN)CC2)c2cn(CC3CCCCC3)c3ccccc23)c1.Cl` (stereo not drawn) [Compound 182, N-((1r,4r)-4-(aminomethyl)cyclohexyl)-3-(1-(cyclohexylmethyl)-1H-indol-3-yl)-3-(m-tolyl)propanamide hydrochloride salt], the IC50 [1] is reported as 17 µM, the MIC [2] is reported as > 512 µg/mL and the MIC [3] is reported as 17 µg/mL.

Molecule `Cc1cccc(C(CC(=O)NC2CCC(N)CC2)c2cn(CC3CCCCC3)c3ccc(-c4ccccc4Cl)cc23)c1.Cl` [Compound 224, N-((1S,4S)-4-aminocyclohexyl)-3-(5-(2-chlorophenyl)-1-(cyclohexylmethyl)-1H-indol-3-yl)-3-(m-tolyl)propanamide hydrochloride salt] has an IC50 [1] of 2.9 µM, an MIC [2] of 82 µg/mL and an MIC [3] of 5 µg/mL.

`Cc1cccc(C(CC(=O)NC2CCNCC2)c2cn(CC3CC3)c3ccccc23)c1.Cl` (stereo not drawn) [Compound 123, 3-(1-(cyclopropylmethyl)-1H-indol-3-yl)-N-(piperidin-4-yl)-3-(m-tolyl)propanamide hydrochloride salt] showed an IC50 [1] of 389 µM, an MIC [2] of 256 µg/mL and an MIC [3] of 64 µg/mL.

`Cl.O=C(CC(c1cscn1)c1cn(CC2CCCCC2)c2ccccc12)NC1CCNCC1` (stereo not drawn) [Compound 101, 3-(1-(cyclohexylmethyl)-1H-indol-3-yl)-N-(piperidin-4-yl)-3-(thiazol-4-yl)propanamide hydrochloride salt] showed an IC50 [1] of 387 µM, an MIC [2] of 128 µg/mL and an MIC [3] of 128 µg/mL.

For `COc1cc(OC)cc(C(CC(=O)N[C@H]2CC[C@H](N)CC2)c2cn(CC3CCCCC3)c3ccccc23)c1.Cl` (stereo partly drawn) [Compound 127, N-((1R,4R)-4-aminocyclohexyl)-3-(1-(cyclohexylmethyl)-1H-indol-3-yl)-3-(3,5-dimethoxyphenyl) propanamide hydrochloride salt], the IC50 [1] was 19 µM, the MIC [2] was > 512 µg/mL and the MIC [3] was 512 µg/mL.

For `N[C@@H](Cc1cn(CC2CCCCC2)c2ccccc12)C(=O)N[C@H]1CC[C@H](N)CC1` [Compound 264, (S)-2-amino-N-((1R,4S)-4-aminocyclohexyl)-3-(1-(cyclohexylmethyl)-1H-indol-3-yl)propanamide hydrochloride salt], the IC50 [1] was 298 µM, the MIC [2] was > 512 µg/mL and the MIC [3] was 240 µg/mL.

For `Cl.O=C(CCc1cn(CC2CCC(F)(F)CC2)c2ccc(Br)cc12)NC1CCNCC1` [Compound 286, 3-(5-bromo-1-((4,4-difluorocyclohexyl)methyl)-1H-indol-3-yl)-N-(piperidin-4-yl)propanamide hydrochloride salt], the IC50 [1] was 164 µM, the MIC [2] was 133 µg/mL and the MIC [3] was 66 µg/mL.

`COc1ccc2c(c1)c(C(CC(=O)NC1CCC(N)CC1)c1cccc(C)c1)cn2CC1CCCCC1.Cl` [Compound 151, N-((1S,4S)-4-aminocyclohexyl)-3-(1-(cyclohexylmethyl)-5-methoxy-1H-indol-3-yl)-3-(m-tolyl)propanamide hydrochloride salt] was tested, and the IC50 [1] was 45 µM, the MIC [2] was 128 µg/mL and the MIC [3] was 16 µg/mL.

In the case of `Cc1cccc(C(CC(=O)N[C@H]2CC[C@H](N)CC2)c2cn(CC3CCCCC3)c3ccc(-c4ccccc4Cl)cc23)c1.Cl` (stereo partly drawn) [Compound 205, N-((1R,4R)-4-aminocyclohexyl)-3-(5-(2-chlorophenyl)-1-(cyclohexylmethyl)-1H-indol-3-yl)-3-(m-tolyl)propanamide hydrochloride salt], the IC50 [1] is reported as 3.2 µM, the MIC [2] is reported as > 512 µg/mL and the MIC [3] is reported as 158 µg/mL.

Work on `COc1ccccc1-c1ccc2c(c1)c(CCC(=O)N[C@H]1CC[C@H](N)CC1)cn2CC1CCCCC1.Cl` [Compound 230, N-((1R,4R)-4-aminocyclohexyl)-3-(1-(cyclohexylmethyl)-5-(2-methoxyphenyl)-1H-indol-3-yl)propanamide hydrochloride salt] yielded an IC50 [1] of 11 µM, an MIC [2] of 67 µg/mL and an MIC [3] of 8 µg/mL.

`FC1(F)CCC(Cn2cc(CCCNC3CCNCC3)c3cc(Br)ccc32)CC1` [Compound 295, N-(3-(5-bromo-1-((4,4-difluorocyclohexyl)methyl)-1H-indol-3-yl)propyl)piperidin-4-amine hydrochloride salt] gave an IC50 [1] of 50 µM, an MIC [2] of 17 µg/mL and an MIC [3] of 9 µg/mL.

In the case of `Cc1cccc(C(CC(=O)N[C@H]2CC[C@H](N)CC2)c2cn(Cc3ccccc3)c3ncccc23)c1.Cl` (stereo partly drawn) [Compound 71, N-((1R,4R)-4-aminocyclohexyl)-3-(1-benzyl-1H-pyrrolo[2,3-b]pyridin-3-yl)-3-(m-tolyl)propanamide hydrochloride salt], the IC50 [1] is reported as 269 µM, the MIC [2] is reported as > 512 µg/mL and the MIC [3] is reported as 258 µg/mL.

Work on `N[C@H]1CC[C@H](CN2CCC(c3cn(CC4CCCCC4)c4ccccc34)CC2)CC1` [Compound 217, (1R,4R)-4-((4-(1-(cyclohexylmethyl)-1H-indol-3-yl)piperidin-1-yl)methyl)cyclohexan-1-amine hydrochloride salt] yielded an IC50 [1] of 133 µM, an MIC [2] of 31 µg/mL and an MIC [3] of 8 µg/mL.

With `Cc1cccc(C(CCNC[C@H]2CC[C@H](CN)CC2)c2cn(CC3CCCCC3)c3ccccc23)c1` (stereo partly drawn) [Compound 177, N-(((1R,4R)-4-(aminomethyl)cyclohexyl)methyl)-3-(1-(cyclohexylmethyl)-1H-indol-3-yl)-3-(m-tolyl)propan-1-amine hydrochloride salt] the IC50 [1] was 15 µM, the MIC [2] was 18 µg/mL and the MIC [3] was 9 µg/mL.

In the case of `NC1CCC(NC(=O)CC(c2cnc3ccccc3c2)c2cn(CC3CCCCC3)c3ccccc23)CC1` [Compound 142, N-((1S,4S)-4-aminocyclohexyl)-3-(1-(cyclohexylmethyl)-1H-indol-3-yl)-3-(quinolin-3-yl)propanamide hydrochloride salt], the IC50 [1] is reported as 44 µM, the MIC [2] is reported as 32 µg/mL and the MIC [3] is reported as 8 µg/mL.

`Cl.N[C@H]1CC[C@H](NC(=O)CC(c2cccc(F)c2)c2cn(CC3CCCCC3)c3ccccc23)CC1` (stereo partly drawn) [Compound 137, N-((1R,4R)-4-aminocyclohexyl)-3-(1-(cyclohexylmethyl)-1H-indol-3-yl)-3-(3-fluorophenyl) propanamide hydrochloride salt] gave an IC50 [1] of 43 µM, an MIC [2] of 32 µg/mL and an MIC [3] of 8 µg/mL.

`COc1cccc(C(CC(=O)NC2CCC(N)CC2)c2cn(CC3CCCCC3)c3ccccc23)c1.Cl` [Compound 160, N-((1S,4S)-4-aminocyclohexyl)-3-(1-(cyclohexylmethyl)-1H-indol-3-yl)-3-(3-methoxyphenyl) propanamide hydrochloride salt] gave an IC50 [1] of 12 µM, an MIC [2] of 67 µg/mL and an MIC [3] of 17 µg/mL.

Work on `Cc1cccc(C(CC(=O)NCCC2CCNCC2)c2cn(CC3CCCCC3)c3ccc(F)cc23)c1.Cl` (stereo not drawn) [Compound 119, 3-(1-(cyclohexylmethyl)-5-fluoro-1H-indol-3-yl)-N-(2-(piperidin-4-yl)ethyl)-3-(m-tolyl)propanamide hydrochloride salt] yielded an IC50 [1] of 19 µM, an MIC [2] of 32 µg/mL and an MIC [3] of 8 µg/mL.

In the case of `Cc1cccc(C(CC(=O)NC2CCNCC2)c2cn(CC3CCC(F)(F)CC3)c3ccccc23)c1.Cl` (stereo not drawn) [Compound 282, 3-(1-((4,4-difluorocyclohexyl)methyl)-1H-indol-3-yl)-N-(piperidin-4-yl)-3-(m-tolyl)propanamide hydrochloride salt], the IC50 [1] is reported as 71 µM, the MIC [2] is reported as 136 µg/mL and the MIC [3] is reported as 34 µg/mL.
